Experimental data published in patent US9873883B2, “Glyphosate resistant plants and associated methods” (Dow AgroSciences LLC, priority 2012, dated 2018).

Experiments:
[1] = tested on: bacterial EPSP synthase DGT-12 (GENBANK ZP_01622155.1) variant DGT-12 v6 (G→A at residue 111), SEQ ID NO:7; experiment: In vitro kinetic assay (inorganic phosphate production, malachite green); type: biochemical
Source text: The novel DGT-14, DGT-12, DGT-18, DGT-29 and DGT-30 enzymes were obtained and the glycine to alanine mutation was introduced into the EPSP synthase enzymes at a location analogous to the G96A location described for the E. coli version of the EPSP synthase enzyme. The DGT-14 protein sequence was modified by introducing an alanine to replace the endogenous glycine of GENBANK ACC NO: ZP_01452683 at amino acid residue 101, thereby resulting in SEQ ID NO:1. The DGT-12 protein sequence was modified by introducing an alanine to replace the endogenous glycine of GENBANK ACC NO: ZP_01622155.1 at amino acid residue 111, thereby resulting in SEQ ID NO:7. The DGT-18 protein sequence was modified by introducing an alanine to replace the endogenous glycine of GENBANK ACC NO: NP_928909.1 at amino acid residue 96, thereby resulting in SEQ ID NO:9. The DGT-29 protein sequence was modified by introducing an alanine to replace the endogenous glycine of GENBANK ACC NO: YP_322772.1 at amino acid residue 96, thereby resulting in SEQ ID NO:11. The DGT-30 protein sequence was modified by introducing an alanine to replace the endogenous glycine of GENBANK ACC NO: ZP_02156189.1 at amino acid residue 96, thereby resulting in SEQ ID NO:13.
(§1) The synthesized genes were cloned into the pET28 expression vector.
Recombinant DGT proteins were overexpressed in Rosetta2™ (DE3) cells (Novagen, Madison, Wis.) from the constructs described above. A single colony was used to inoculate 50 mL starter cultures of LB containing chloramphenicol (25 μg/mL) and kanamycin (50 μg/mL) which were cultivated overnight at 37° C. The overnight cultures were used to inoculate 1 L of LB containing chloramphenicol (25 μg/mL) and kanamycin (50 μg/mL). The cultures were grown at 37° C. to an O.D.600=0.6 then placed in an ice water bath for 10 minutes. Expression of the target proteins was achieved by addition of IPTG to a final concentration of 500 μM. Induction was allowed to proceed overnight at 20° C. followed by harvesting via centrifugation at 8,000 rpm for 20 minutes. […]

[2] = target: Mariprofundus ferrooxydans EPSP synthase DGT-14 variant DGT-14 v6 (G101A), SEQ ID NO:1 (Mariprofundus ferrooxydans, UniProt Q0EYT4, G101A); experiment: as above; type: biochemical; settings: IC50 (glyphosate), values greater than 50 are estimates
[3] = tested on: Arabidopsis transformed with TraP5 v1::dgt-14 (pDAB102787); experiment: Postemergence glyphosate tolerance, visual injury; type: in vivo, Arabidopsis thaliana; settings: 2 weeks after application
[4] = target: bacterial EPSP synthase DGT-11 v6, native (GENBANK YP_989551.1), SEQ ID NO:5 (Bartonella bacilliformis, UniProt A0ABN0IFN8); experiment: In vitro kinetic assay (inorganic phosphate production, malachite green)
Protocol: as §1
Recombinant DGT proteins were overexpressed in Rosetta2™ (DE3) cells (Novagen, Madison, Wis.) from the constructs described above. A single colony was used to inoculate 50 mL starter cultures of LB containing chloramphenicol (25 μg/mL) and kanamycin (50 μg/mL) which were cultivated overnight at 37° C. The overnight cultures were used to inoculate 1 L of LB containing chloramphenicol (25 μg/mL) and kanamycin (50 μg/mL). The cultures were grown at 37° C. to an O.D.600=0.6 then placed in an ice water bath for 10 minutes. Expression of the target proteins was achieved by addition of IPTG to a final concentration of 500 μM. Induction was allowed to proceed overnight at 20° C. followed by harvesting via centrifugation at 8,000 rpm for 20 minutes. The cell pellets were stored at −80° C. until required for purification. All purification steps were carried out at 4° C.

dgt-14 rice plants = experiment: Glyphosate tolerance of dgt-14 rice; type: in vivo, Oryza sativa; settings: sprayed
Source text: Putatively transgenic rice plantlets at the 3-5 leaf stage are sprayed with a solution of glyphosate. Once sprayed, plantlets are allowed to dry for one hour before being moved out of the fume hood. Rating for sensitivity or resistance to glyphosate is completed from 10-14 days after treatment (DAT). Glyphosate resistant rice plantlets which contain a fully integrated copy of the dgt-14 plant are identified. Rice plants containing the dgt-14 transgene are obtained. The dgt-14 rice plants are sprayed with varying concentrations of glyphosate and shown to provide tolerance to glyphosate at concentrations up to 3360 g ae/ha.

[5] = tested on: Arabidopsis transformed with TraP5 v2::dgt-14 (pDAB105525); experiment: Postemergence glyphosate tolerance, visual injury; type: in vivo, Arabidopsis thaliana; settings: 2 weeks after application

| Compound | kcat/Km ([1]; PEP, pH 7.5, 1 mM S3P) | Km ([1]; read-out: Km for PEP, pH 7.5, 1 mM S3P) | IC50 ([2]; at 60 μM PEP) | IC50 ([2]; at 1 mM PEP) | Visual % injury (Ave) ([3]; T2, 840 g ae/ha) | Visual % injury (Ave) ([3]; T3, 840 g ae/ha) | IC50 ([1]; at 1 mM PEP, read-out: IC50 (glyphosate)) | IC50 [4] | tolerance to glyphosate at concentrations up to (dgt-14 rice plants) | Visual % injury (Ave) ([5]; T2, 840 g ae/ha) | Visual % injury (Ave) ([5]; T3, 840 g ae/ha) |
| --- | --- | --- | --- | --- | --- | --- | --- | --- | --- | --- | --- |
| C=C(OP(=O)(O)O)C(=O)O [PEP, phosphoenolpyruvate] | 700 M⁻¹ s⁻¹ | 128 µM |  |  |  |  |  |  |  |  |  |
| O=C(O)CNCP(=O)(O)O [glyphosate, N-(phosphonomethyl)glycine] |  |  | > 80 mM | > 80 mM | 90.0% | 86.3% | 4 mM | 9.98 mM | up to 3360 g ae/ha | 90.0% | 97.5% |
